Series [1] in a line: Biodistribution and metabolism of remdesivir in rats (UHPLC-MS/MS). Format: in vivo, Sprague-Dawley rats. Conditions: rat; for Concentration in PBMCs / Concentration in brain / Concentration in epididymis / Concentration in heart / Concentration in liver / Concentration in lung / concentration at 2 h / concentration at 6 h: GS-5734 100 mg/kg i.p.; for Concentration in PBMCs / Concentration in brain / Concentration in epididymis / Concentration in heart / Concentration in liver / Concentration in lung: average n=5; for concentration at 2 h / concentration at 6 h: male, Sprague-Dawley, in vivo, 100 mg/kg. On the procedure:
10 male Sprague-Dawley rats (250 ± 25 g) were purchased from Vital River Laboratories Co., LTD (Beijng, China). The rats were divided randomly into two groups with five rats in each, and were administered with GS-5734 at a single dose of 100 mg/kg, i.p. At the time point of 2h and 6h after drug administration, rats in one group were dissected with euthanization and blood samples as well as heart, liver, spleen, lung, kidney, brain, thymus, testis, and epididymis were collected for UHPLC-MS/MS analysis as mentioned above.
The analysis method was like that for FNC expect that the flow rate was set at 0.4 mL/min and the gradient elution was employed using the following program: 0-1.5min, 100-65%B; 1.5-4min, 65-60%B; 4-5min, 60-56%B. Multiple-reaction monitoring (MRM) mode was performed using the characteristic precursor to product ion transitions (Supplementary Table 4b).
The standard curves of blank kidney tissue matrix, plasma matrix and PBMCs matrix were applied for quantitative analysis of GS-5734 and its metabolites. GS-5734, Nuc, Nuc-MP and Nuc-TP were quantified using their own standard curves, and the metabolites of GS-5734 (Ala-Nuc and Nuc-DP) were quantified using Nuc-MP standard curves.
Figure. S4. […] 10 male Sprague-Dawley rats were administered with GS-5734 at a single dose of 100 mg/kg, i.p. At the time point of 2 h and 6 h after drug administration, five rats were dissected. The blood samples as well as heart, liver, spleen, lung, kidney, brain, thymus, testis, and epididymis were collected for UHPLC-MS/MS analysis performed on a UHPLC system (1290 series, Agilent Technologies, US) coupled to a triple quadrupole mass spectrometer (Agilent 6470 QQQ). a.

Series [2] is described as follows: Cytotoxicity in Vero E6 cells (Cell Titer 96 Aqueous one Solution Cell Proliferation Assay). Format: cell-based. Particulars: African green monkey, Vero E6, 48 h. On the procedure:
(§1) The cytotoxicity of the tested drugs in Vero E6 or Calu-3 Cells were determined by Cell Titer 96® Aqueous one Solution Cell Proliferation Assay (Promega, US). To evaluate the antiviral efficacy of the drugs, Vero E6 or Calu-3 cells were cultured overnight in 96-well plate with a density of 4 ×10^4 cells/well. Cells were pre-treated with the different doses of the indicated antivirals for 1 h. Viruses (MOI=0.05) were subsequently added to cells, followed by 1 h incubation. Then, the virus-drug mixture was removed and cells were further cultured with fresh drug-containing medium. At 48 h post infection (pi), the culture supernatant was collected and lysed in Trizol (Thermo, Cat no. 15596018) for further analysis. Remdesivir was tested as reference.

Series [3] has as its system SARS-CoV-2 and HCoV-OC43 coronavirus. The series can be described thus: Anti-coronavirus activity in vitro, summary over viruses and cells. Format: cell-based. Particulars: depending on viruses or cells.
Another series has as its system HCoV-OC43. The series can be described thus: Anti-HCoV-OC43 assay in H460 cells (CPE, Western blot, immunofluorescence). Format: cell-based. (Immunoblotting shows a protein as a band on a membrane.)
Series [4] is described as follows: Cytotoxicity in Calu-3 cells (Cell Titer 96 Aqueous one Solution Cell Proliferation Assay). Particulars: human, Calu-3, 48 h. Format: cell-based. As to the method: as §1
Series [5] has as its system SARS-CoV-2. Kind of series: Anti-SARS-CoV-2 assay in Calu-3 cells (qRT-PCR). Format: cell-based. Background: Real-time PCR tracks product formation cycle by cycle.
Series [6] has as its system SARS-CoV-2. Kind of series: Anti-SARS-CoV-2 assay in Vero E6 cells (qRT-PCR of viral RNA copies, CPE). Format: cell-based.

Where two headings read alike, the source gives them in different places.

In the case of `C[C@H](NP(=O)(O)OC[C@H]1O[C@@](C#N)(c2ccc3c(N)ncnn23)[C@H](O)[C@@H]1O)C(=O)O` [Ala-Nuc], in series [1] (2 h), the “Concentration in PBMCs” value came out at 0.55 ng/10^6 cells, the Concentration in brain came to 24.16 ng/g tissue, the Concentration in epididymis is on record as 24.05 ng/g tissue and the Concentration in heart stood at 3908.49 ng/g tissue. In series [1] (2 h), this compound registered a Concentration in liver of 1304.94 ng/g tissue and a Concentration in lung of 82.87 ng/g tissue. Besides, in series [1] (6 h), the “Concentration in PBMCs” value is reported as 0.50 ng/10^6 cells, the Concentration in brain came out at 38.27 ng/g tissue, the Concentration in epididymis was 48.37 ng/g tissue and the Concentration in heart was determined as 5730.68 ng/g tissue. In series [1] (6 h), this compound gave a Concentration in liver of 416.97 ng/g tissue and a Concentration in lung of 73.42 ng/g tissue.

What is called CC50 is the concentration at which the toxic effect on the cells reaches its halfway point. What is called EC50 is the concentration that produces a half-maximal response. Regarding `CC(C)OC(=O)[C@H](C)N[P@](=O)(OC[C@@]1(N=[N+]=[N-])O[C@@H](n2ccc(N)nc2=O)[C@@H](F)[C@@H]1O)Oc1ccccc1` [CL-236], the CC50 at 48 h in series [2] was 66.2 µM; in series [4] it was greater than 102 µM. Moreover, the concentration giving a half-maximal response (EC50) in series [3] was 1.2 to 4.3 µM; in the series with HCoV-OC43 (Betacoronavirus 1, OC43, NCI-H460, evaluated by CPE, read-out: EC50, HCoV-OC43 infection), 1.2 µM; in the series on SARS-CoV-2 [5] (Severe acute respiratory syndrome coronavirus 2, Calu-3, MOI 0.05, qRT-PCR, 48 h, read-out: EC50, SARS-CoV-2 RNA replication) it was 1.2 µM; with SARS-CoV-2 [6] (Severe acute respiratory syndrome coronavirus 2, Vero C1008, 48 h, Vero E6, MOI 0.05, qRT-PCR, 48 h, read-out: EC50, SARS-CoV-2 RNA replication), 4.31 µM. The “selective index (SI)” value in series [3] was 15–83. In addition, the “HCoV-OC43 N protein expression” value in the series on HCoV-OC43 (Western blot, 48 h) is listed as “decrease in N protein expression”. In addition, the SI in the series with HCoV-OC43 (evaluated by CPE) is listed as 20. For the same compound, the “selectivity index (SI)” value in the series with SARS-CoV-2 [5] (Calu-3) was 83; in the series with SARS-CoV-2 [6] (Vero E6), 15.35. For the same compound, the “cytopathic effect (CPE) of SARS-CoV-2” value with SARS-CoV-2 [6] (Vero E6, 48 h) is reported as “protected the cells from SARS-CoV-2-caused cell death”.

In the case of `N#C[C@@]1(c2ccc3c(N)ncnn23)O[C@H](COP(=O)(O)OP(=O)(O)O)[C@@H](O)[C@H]1O` [Nuc-DP], in series [1] (2 h), the “Concentration in PBMCs” value was 0.15 ng/10^6 cells, the Concentration in epididymis stood at 33.09 ng/g tissue and the Concentration in lung stood at 146.16 ng/g tissue. In addition, in series [1] (6 h), the “Concentration in PBMCs” value worked out at 0.14 ng/10^6 cells, the Concentration in epididymis was 49.65 ng/g tissue and the Concentration in lung was found to be 118.94 ng/g tissue.

For `N#C[C@@]1(c2ccc3c(N)ncnn23)O[C@H](COP(=O)(O)O)[C@@H](O)[C@H]1O` [Nuc-MP], in series [1] (2 h), the “Concentration in PBMCs” value is recorded as 0.44 ng/10^6 cells, the Concentration in epididymis is 6493.99 ng/g tissue and the Concentration in lung amounted to 3904.37 ng/g tissue. For the same compound, in series [1] (6 h), the “Concentration in PBMCs” value worked out at 0.32 ng/10^6 cells, the Concentration in epididymis came to 555.72 ng/g tissue and the Concentration in lung amounted to 309.88 ng/g tissue.

Take `CCC(CC)COC(=O)[C@H](C)N[P@](=O)(OC[C@H]1O[C@@](C#N)(c2ccc3c(N)ncnn23)[C@H](O)[C@@H]1O)Oc1ccccc1` [Remdesivir, reference compound]: the concentration at 2 h in series [1] (2 h, average n=5, read-out: Concentration in brain) amounted to 0.61 ng/g; in series [1] (2 h, average n=5, read-out: Concentration in epididymis), 42.1 ng/g; in series [1] (2 h, average n=5, read-out: Concentration in heart), 5.12 ng/g; in series [1] (2 h, average n=5, read-out: Concentration in kidney), 25.4 ng/g; in series [1] (2 h, average n=5, read-out: Concentration in liver), 38.4 ng/g; in series [1] (2 h, average n=5, read-out: Concentration in lung), 5.14 ng/g. The concentration at 2 h was found to be 39.4 ng/g in series [1] (2 h, average n=5, read-out: Concentration in spleen); 2.88 ng/g in series [1] (2 h, average n=5, read-out: Concentration in testis); 29.9 ng/g in series [1] (2 h, average n=5, read-out: Concentration in thymus). Also, the concentration at 6 h in series [1] (6 h, average n=5, read-out: Concentration in brain) came to 0.78 ng/g; in series [1] (6 h, average n=5, read-out: Concentration in epididymis), 0.6 ng/g; in series [1] (6 h, average n=5, read-out: Concentration in heart) it was 28.6 ng/g; in series [1] (6 h, average n=5, read-out: Concentration in kidney) it was 0.84 ng/g; in series [1] (6 h, average n=5, read-out: Concentration in liver), 13.1 ng/g; in series [1] (6 h, average n=5, read-out: Concentration in lung), 0.87 ng/g. The concentration at 6 h in series [1] (6 h, average n=5, read-out: Concentration in spleen) worked out at 0.32 ng/g; in series [1] (6 h, average n=5, read-out: Concentration in thymus), 2.74 ng/g.

`N#C[C@@]1(c2ccc3c(N)ncnn23)O[C@H](COP(=O)(O)OP(=O)(O)OP(=O)(O)O)[C@@H](O)[C@H]1O` [Nuc-TP]: in series [1] (2 h), the “Concentration in PBMCs” value came out at 12.32 ng/10^6 cells, the Concentration in epididymis is 486.87 ng/g tissue and the Concentration in lung worked out at 3168.31 ng/g tissue. Further, in series [1] (6 h), the “Concentration in PBMCs” value is 12.82 ng/10^6 cells, the Concentration in epididymis is 1225.27 ng/g tissue and the Concentration in lung is 2057.66 ng/g tissue. In series [1] (remdesivir ip, 2 and 6 h), the “level of Nuc-TP in the thymus” value is given as “below the detectable line”.
